# Test results: BindingDB's records for doi:10.7270/Q2HQ3XB9 (Nmmlsc, 2008)
# Target: T1, Estrogen receptor (Homo sapiens, UniProt P03372)
# T1 sequence (P03372 whole entry): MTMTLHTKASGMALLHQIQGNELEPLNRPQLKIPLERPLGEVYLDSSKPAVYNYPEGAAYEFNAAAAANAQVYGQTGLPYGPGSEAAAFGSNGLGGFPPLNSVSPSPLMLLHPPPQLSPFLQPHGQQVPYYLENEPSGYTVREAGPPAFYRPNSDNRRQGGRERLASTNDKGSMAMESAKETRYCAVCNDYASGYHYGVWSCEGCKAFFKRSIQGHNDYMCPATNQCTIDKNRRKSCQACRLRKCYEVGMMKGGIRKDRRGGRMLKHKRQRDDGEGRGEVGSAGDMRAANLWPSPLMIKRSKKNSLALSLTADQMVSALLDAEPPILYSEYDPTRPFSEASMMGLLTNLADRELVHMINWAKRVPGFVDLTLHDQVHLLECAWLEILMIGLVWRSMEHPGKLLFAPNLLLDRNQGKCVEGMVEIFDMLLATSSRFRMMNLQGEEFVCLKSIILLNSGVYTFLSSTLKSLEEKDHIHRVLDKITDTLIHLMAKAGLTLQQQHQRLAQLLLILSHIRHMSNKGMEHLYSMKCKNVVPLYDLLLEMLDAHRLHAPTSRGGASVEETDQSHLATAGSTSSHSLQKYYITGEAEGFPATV
# Test: ERalpha binding competitors, concentration series, dose response, cell-based, Cos7 ERalpha-GFP, flow cytometry (AID 1223)
# Details: not given
row,SMILES,EC50
1,"CCn1c(=NC(=O)c2ccc(-n3c(O)ccc3O)cc2)sc2c(OC)ccc(OC)c21 [4-[2,5-bis(oxidanylidene)pyrrolidin-1-yl]-N-(3-ethyl-4,7-dimethoxy-1,3-benzothiazol-2-ylidene)benzamide]",> 10000 nM
2,"Cc1cc(C)cc(OCC(=O)Nc2ccc(N3CCCC3)cc2)c1 [2-(3,5-dimethylphenoxy)-N-(4-pyrrolidin-1-ylphenyl)acetamide]",> 10000 nM
3,"CC(=O)Oc1ccc(C2Nc3c(C(=O)O)ccc([N+](=O)[O-])c3C3C=CCC32)cc1 (stereo not given) [4-(4-acetoxyphenyl)-9-nitro-3a,4,5,9b-tetrahydro-3H-cyclopenta[c]quinoline-6-carboxylic acid]",> 10000 nM
4,Brc1cc2c(cc1[C@@H]1Nc3ccccc3[C@@H]3C=CC[C@@H]31)OCO2,782 nM
5,"CC(=O)c1ccc2c(c1)C1C=CCC1C(c1cccc([N+](=O)[O-])c1)N2 (stereo not given) [1-[4-(3-nitrophenyl)-3a,4,5,9b-tetrahydro-3H-cyclopenta[c]quinolin-8-yl]ethanone]",> 10000 nM
6,"O=C(Nc1cc(C(F)(F)F)ccc1N1CCOCC1)C1Cc2ccccc2CN1C(=O)c1ccco1 (stereo not given) [2-(2-furoyl)-N-[2-morpholino-5-(trifluoromethyl)phenyl]-3,4-dihydro-1H-isoquinoline-3-carboxamide]",367 nM
7,O=C(COC(=O)CCC(=O)c1cccs1)NCc1ccco1 [4-keto-4-(2-thienyl)butyric acid [2-(2-furfurylamino)-2-keto-ethyl] ester],4.25 nM
8,"Cc1cc(C)c2c(c1)[C@@H]1C=CC[C@@H]1[C@H](c1ccc(S(=O)(=O)N3CCOCC3)cc1)N2 [(3aS,4R,9bR)-6,8-dimethyl-4-[4-(morpholin-4-ylsulfonyl)phenyl]-3a,4,5,9b-tetrahydro-3H-cyclopenta[c]quinoline]",44.4 nM
9,"COc1ccccc1N1CCN(C(=O)c2ccc3nc(-c4ccco4)c(-c4ccco4)nc3c2)CC1 [2,3-di-2-furyl-6-{[4-(2-methoxyphenyl)piperazin-1-yl]carbonyl}quinoxaline]",15.4 nM
10,COc1ccc(C(=O)NN=C(C)c2ccc3c(c2)C2C=CCC2C(c2ccccc2)N3)cc1 (stereo not given) [SMR000176871],1430 nM
11,"COc1nc(-c2ccc(Cl)cc2)ccc1-c1noc(-c2ccco2)n1 [3-[6-(4-chlorophenyl)-2-methoxy-3-pyridinyl]-5-(2-furanyl)-1,2,4-oxadiazole]",48.7 nM
12,"C[C@]12CC[C@@H]3c4ccc(O)cc4[C@@H](O)C[C@H]3[C@@H]1CC[C@@H]2O [(6S,8R,9S,13S,14S,17S)-13-methyl-6,7,8,9,11,12,14,15,16,17-decahydrocyclopenta[a]phenanthrene-3,6,17-triol]",36.6 nM

# Same assay, conditions: inactive by the depositor's call
row,SMILES,EC50
1,Cc1cc(C(=O)Nc2sc3c(c2C#N)CCC3)no1 [MLS000066325],3.17 nM
2,COc1ccc(CNC(=O)c2cc(-c3cccs3)on2)cc1 [MLS000087249],9.68 nM
3,Cn1ccnc1SCC(=O)Nc1ccc2nc(SCC(=O)NC3CC3)sc2c1 [MLS000085771],24.3 nM
4,"O=C(O)c1cc(Cl)c2c(c1)[C@@H]1C=CC[C@@H]1[C@H](c1ccc(S(=O)(=O)N3CCOCC3)cc1)N2 [(3aS,4R,9bR)-6-chloranyl-4-(4-morpholin-4-ylsulfonylphenyl)-3a,4,5,9b-tetrahydro-3H-cyclopenta[c]quinoline-8-carboxylic acid]",1010 nM
5,COc1cccc(NS(=O)(=O)c2ccc3c(c2)C2C=CCC2C(c2ccc(C(=O)O)cc2)N3)c1 (stereo not given),3880 nM
6,COc1ccc(NS(=O)(=O)c2ccc3c(c2)[C@H]2C=CC[C@H]2[C@@H](c2ccc(C(=O)O)cc2)N3)cc1,3600 nM
7,O=C(OCC(=O)N1CCN(C(=O)c2ccco2)CC1)c1cc(-c2ccco2)nc2ccccc12 [2-(2-furanyl)-4-quinolinecarboxylic acid [2-[4-[2-furanyl(oxo)methyl]-1-piperazinyl]-2-oxoethyl] ester],33.9 nM
8,"Cc1nnc(SCC(=O)NC(=O)NCc2ccco2)n1Cc1ccccc1 [2-[(4-benzyl-5-methyl-1,2,4-triazol-3-yl)sulfanyl]-N-(furan-2-ylmethylcarbamoyl)acetamide]",44.7 nM
